# In article PMC11864979, “First-in-class ultralong-target-residence-time p38α inhibitors as a mitosis-targeted therapy for colorectal cancer” (Nature Cancer, 2025):
# Legend:
# Assay in all cases: selectivity profiling in a panel of 340 wild-type kinases (Reaction Biology Europe)
# Format in all cases: binding
# 340 wild-type kinases [1] = target: T1, 340 wild-type kinases (Homo sapiens, UniProt Q9UPE1); details: STK23; 1 µM; read-out: residual activity
# T1 construct: purchased Reaction Biology Europe
# From the text: (§1) Potential interactions between 2015 and 340 wild-type kinases were checked by means of a competition binding assay performed by Reaction Biology Europe (Supplementary Table 15).
# 340 wild-type kinases [2] = target: T2, 340 wild-type kinases (Homo sapiens, UniProt P36896); details: 1 µM 2015; read-out: ACVR1B residual activity
# T2 construct: purchased Reaction Biology Europe
# T2 sequence (P36896 24-505): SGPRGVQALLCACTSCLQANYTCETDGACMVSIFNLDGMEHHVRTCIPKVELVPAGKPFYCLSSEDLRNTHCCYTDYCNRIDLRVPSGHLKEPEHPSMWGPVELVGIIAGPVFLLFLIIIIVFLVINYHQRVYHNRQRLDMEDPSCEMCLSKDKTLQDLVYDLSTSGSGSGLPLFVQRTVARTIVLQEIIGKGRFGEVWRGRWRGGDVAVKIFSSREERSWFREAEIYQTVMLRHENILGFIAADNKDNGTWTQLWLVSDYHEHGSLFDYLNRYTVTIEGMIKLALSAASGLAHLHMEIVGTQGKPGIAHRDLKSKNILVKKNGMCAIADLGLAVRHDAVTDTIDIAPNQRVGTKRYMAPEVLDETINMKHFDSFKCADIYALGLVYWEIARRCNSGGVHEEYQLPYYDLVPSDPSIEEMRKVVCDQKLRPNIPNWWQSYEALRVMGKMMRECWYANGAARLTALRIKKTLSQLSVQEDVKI
# From the text: as §1
# 340 wild-type kinases [3] = target: T3, 340 wild-type kinases (Homo sapiens, UniProt P11802); details: CDK4/CycD1; 1 µM; read-out: residual activity
# T3 construct: purchased Reaction Biology Europe
# From the text: as §1
# 340 wild-type kinases [4] = target: T4, 340 wild-type kinases (Homo sapiens, UniProt P27361); details: 0.2 µM 2015; read-out: ERK1 residual activity
# T4 construct: purchased Reaction Biology Europe
# From the text: as §1
# 340 wild-type kinases [5] = target: T5, 340 wild-type kinases (Homo sapiens, UniProt Q9UQM7); details: CAMK2A; 0.2 µM; read-out: residual activity
# T5 construct: purchased Reaction Biology Europe
# From the text: as §1
# 340 wild-type kinases [6] = target: T6, 340 wild-type kinases (Homo sapiens, UniProt O43318); details: MAP3K7/MAP3K7IP1; 0.2 µM; read-out: residual activity
# T6 construct: purchased Reaction Biology Europe
# T6 sequence (O43318 1-606): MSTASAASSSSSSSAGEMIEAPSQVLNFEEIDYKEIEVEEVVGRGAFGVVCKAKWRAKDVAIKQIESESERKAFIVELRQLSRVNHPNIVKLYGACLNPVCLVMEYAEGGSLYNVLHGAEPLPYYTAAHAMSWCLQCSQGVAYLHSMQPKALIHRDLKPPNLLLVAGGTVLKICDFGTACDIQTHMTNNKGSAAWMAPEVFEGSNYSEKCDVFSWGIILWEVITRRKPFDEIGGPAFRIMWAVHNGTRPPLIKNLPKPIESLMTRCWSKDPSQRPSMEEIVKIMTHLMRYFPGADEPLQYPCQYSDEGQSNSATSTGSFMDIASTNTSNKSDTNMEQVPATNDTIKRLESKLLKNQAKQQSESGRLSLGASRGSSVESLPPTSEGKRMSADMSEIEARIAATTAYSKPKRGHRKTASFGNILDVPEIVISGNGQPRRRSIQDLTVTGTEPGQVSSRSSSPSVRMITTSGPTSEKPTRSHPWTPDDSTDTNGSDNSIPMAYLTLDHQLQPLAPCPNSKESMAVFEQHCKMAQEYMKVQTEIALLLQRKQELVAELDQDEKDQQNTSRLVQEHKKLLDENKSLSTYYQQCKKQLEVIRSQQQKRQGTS
# From the text: as §1
# 340 wild-type kinases [7] = target: T7, 340 wild-type kinases (Homo sapiens, UniProt Q9HAZ1); details: 1 µM 2015; read-out: CLK4 residual activity
# T7 construct: purchased Reaction Biology Europe
# From the text: as §1
# 340 wild-type kinases [8] = target: T8, 340 wild-type kinases (Homo sapiens, UniProt Q9NZJ5); details: 0.2 µM 2015; read-out: EIF2AK3 residual activity
# T8 construct: purchased Reaction Biology Europe
# T8 sequence (Q9NZJ5 30-1116): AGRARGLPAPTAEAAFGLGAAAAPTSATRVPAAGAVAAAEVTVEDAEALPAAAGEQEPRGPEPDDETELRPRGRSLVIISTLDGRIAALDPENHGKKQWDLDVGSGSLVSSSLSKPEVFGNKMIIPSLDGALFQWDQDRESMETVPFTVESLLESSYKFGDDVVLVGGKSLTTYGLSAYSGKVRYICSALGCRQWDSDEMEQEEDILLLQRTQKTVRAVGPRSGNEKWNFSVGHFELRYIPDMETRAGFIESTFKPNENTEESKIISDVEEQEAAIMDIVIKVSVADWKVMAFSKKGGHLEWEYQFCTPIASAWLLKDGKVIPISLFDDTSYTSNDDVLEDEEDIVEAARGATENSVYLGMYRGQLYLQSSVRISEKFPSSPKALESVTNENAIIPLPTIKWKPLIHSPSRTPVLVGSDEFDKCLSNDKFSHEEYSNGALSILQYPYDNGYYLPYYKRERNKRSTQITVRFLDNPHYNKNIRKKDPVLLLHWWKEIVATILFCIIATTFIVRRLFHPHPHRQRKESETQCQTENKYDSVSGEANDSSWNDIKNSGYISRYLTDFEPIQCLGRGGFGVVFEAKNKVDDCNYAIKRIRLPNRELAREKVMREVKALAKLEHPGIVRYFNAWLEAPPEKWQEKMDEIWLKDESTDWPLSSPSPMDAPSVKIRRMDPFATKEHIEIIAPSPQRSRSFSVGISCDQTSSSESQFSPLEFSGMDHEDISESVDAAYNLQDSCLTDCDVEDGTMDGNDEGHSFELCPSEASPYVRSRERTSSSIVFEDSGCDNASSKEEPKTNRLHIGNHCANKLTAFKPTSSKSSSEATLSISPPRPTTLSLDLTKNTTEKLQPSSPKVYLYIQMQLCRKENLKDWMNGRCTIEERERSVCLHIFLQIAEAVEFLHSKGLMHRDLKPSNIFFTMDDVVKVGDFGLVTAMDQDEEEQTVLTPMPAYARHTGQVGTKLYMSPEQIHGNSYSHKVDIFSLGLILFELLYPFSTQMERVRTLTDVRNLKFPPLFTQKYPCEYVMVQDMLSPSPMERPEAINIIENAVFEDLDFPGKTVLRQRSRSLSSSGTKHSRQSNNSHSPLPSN
# From the text: as §1
# T1 sequence (Q9UPE1 whole entry): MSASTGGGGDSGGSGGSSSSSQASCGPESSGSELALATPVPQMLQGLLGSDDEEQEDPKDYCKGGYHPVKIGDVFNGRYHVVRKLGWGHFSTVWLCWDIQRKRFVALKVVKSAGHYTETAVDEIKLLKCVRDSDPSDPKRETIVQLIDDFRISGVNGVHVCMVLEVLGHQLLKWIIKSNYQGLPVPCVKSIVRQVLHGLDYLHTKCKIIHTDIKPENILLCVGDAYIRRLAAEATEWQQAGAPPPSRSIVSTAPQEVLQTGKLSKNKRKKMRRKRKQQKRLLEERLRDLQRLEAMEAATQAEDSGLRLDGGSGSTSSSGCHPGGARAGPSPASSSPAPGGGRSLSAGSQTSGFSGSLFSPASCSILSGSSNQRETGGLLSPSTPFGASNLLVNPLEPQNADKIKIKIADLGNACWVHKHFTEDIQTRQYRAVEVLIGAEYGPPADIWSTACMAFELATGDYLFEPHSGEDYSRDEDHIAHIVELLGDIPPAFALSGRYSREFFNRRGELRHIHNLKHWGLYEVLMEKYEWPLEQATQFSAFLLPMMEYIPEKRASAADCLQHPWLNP
# T3 sequence (P11802 whole entry): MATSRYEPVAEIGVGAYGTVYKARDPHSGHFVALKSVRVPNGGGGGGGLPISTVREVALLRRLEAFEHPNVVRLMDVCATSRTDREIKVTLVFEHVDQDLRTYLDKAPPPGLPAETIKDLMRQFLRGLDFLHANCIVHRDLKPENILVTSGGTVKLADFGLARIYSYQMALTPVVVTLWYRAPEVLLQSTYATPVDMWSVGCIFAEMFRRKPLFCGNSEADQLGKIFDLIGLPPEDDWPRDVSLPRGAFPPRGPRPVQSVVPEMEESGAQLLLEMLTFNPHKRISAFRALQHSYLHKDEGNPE
# T5 sequence (Q9UQM7 whole entry): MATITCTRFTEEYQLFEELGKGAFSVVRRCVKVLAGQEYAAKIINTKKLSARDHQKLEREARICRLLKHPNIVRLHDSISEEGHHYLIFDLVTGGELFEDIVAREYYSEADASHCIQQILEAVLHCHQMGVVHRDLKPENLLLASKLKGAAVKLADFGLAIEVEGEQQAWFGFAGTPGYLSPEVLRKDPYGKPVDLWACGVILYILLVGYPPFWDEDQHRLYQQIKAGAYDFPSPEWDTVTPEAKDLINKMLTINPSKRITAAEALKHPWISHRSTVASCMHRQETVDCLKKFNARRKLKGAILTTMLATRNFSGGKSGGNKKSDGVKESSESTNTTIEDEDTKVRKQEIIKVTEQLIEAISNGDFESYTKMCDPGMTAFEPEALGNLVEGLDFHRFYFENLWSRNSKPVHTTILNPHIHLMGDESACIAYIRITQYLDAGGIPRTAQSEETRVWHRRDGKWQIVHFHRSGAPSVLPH
# T4 sequence (P27361 whole entry): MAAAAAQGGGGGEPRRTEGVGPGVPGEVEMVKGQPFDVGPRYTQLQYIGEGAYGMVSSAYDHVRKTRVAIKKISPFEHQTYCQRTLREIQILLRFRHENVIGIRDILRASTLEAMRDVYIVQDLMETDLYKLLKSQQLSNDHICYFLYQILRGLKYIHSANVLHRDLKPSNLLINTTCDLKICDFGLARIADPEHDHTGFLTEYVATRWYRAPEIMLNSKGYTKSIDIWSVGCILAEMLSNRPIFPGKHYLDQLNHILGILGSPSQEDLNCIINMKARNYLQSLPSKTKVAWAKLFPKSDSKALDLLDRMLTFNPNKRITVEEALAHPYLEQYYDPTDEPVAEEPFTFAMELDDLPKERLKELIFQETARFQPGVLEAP
# T7 sequence (Q9HAZ1 whole entry): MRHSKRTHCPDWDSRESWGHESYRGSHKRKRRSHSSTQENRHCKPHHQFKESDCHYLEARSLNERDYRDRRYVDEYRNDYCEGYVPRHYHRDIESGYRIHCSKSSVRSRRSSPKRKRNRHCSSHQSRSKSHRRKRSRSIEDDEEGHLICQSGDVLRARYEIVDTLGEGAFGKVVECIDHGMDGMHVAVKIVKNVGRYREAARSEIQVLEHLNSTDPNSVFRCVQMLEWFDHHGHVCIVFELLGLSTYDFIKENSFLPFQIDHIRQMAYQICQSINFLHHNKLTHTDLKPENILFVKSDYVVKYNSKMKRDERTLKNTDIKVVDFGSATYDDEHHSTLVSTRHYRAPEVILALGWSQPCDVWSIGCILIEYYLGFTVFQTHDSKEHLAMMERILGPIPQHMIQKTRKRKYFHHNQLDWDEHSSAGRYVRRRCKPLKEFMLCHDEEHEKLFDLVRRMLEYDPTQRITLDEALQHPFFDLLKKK
smiles,measurement,setting,value
CNC(=O)c1ccc2c(c1)C(=O)c1ccc(Nc3ccc(F)c(NC(=O)C4CC4)c3)cc1CC2 [Compound 2015],remaining activity at 1 µM,340 wild-type kinases [1],94.1%
same,remaining activity at 1 µM,340 wild-type kinases [2],86.1%
same,remaining activity at 1 µM,340 wild-type kinases [3],98.4%
same,remaining activity at 0.2 µM,340 wild-type kinases [4],108%
same,remaining activity at 0.2 µM,340 wild-type kinases [5],102%
same,remaining activity at 0.2 µM,340 wild-type kinases [6],96.8%
same,remaining activity at 1 µM,340 wild-type kinases [7],118%
same,remaining activity at 0.2 µM,340 wild-type kinases [8],93.3%
